Results taken from PubChem BioAssay (NCI).
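1) Cells in 96-well plates. 2) Compound, 48 h, 5 concentrations. 3) Linear interpolation between surrounding doses. 4) Unreached endpoint = highest concentration. GI50 marks 50% less growth. TGI marks complete inhibition of growth.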

Legend:
Assay in all cases: NCI-60 cell line screen, 48 h
BT-549 breast = system: BT-549 breast
HS 578T breast = system: HS 578T breast
RPMI-8226 leukemia = system: RPMI-8226 leukemia
SK-MEL-5 melanoma = system: SK-MEL-5 melanoma
HCT-116 colon = system: HCT-116 colon
MALME-3M melanoma = system: MALME-3M melanoma
A549 NSCLC = system: A549 NSCLC
K-562 leukemia = system: K-562 leukemia
SW-620 colon = system: SW-620 colon
786-0 renal = system: 786-0 renal
CAKI-1 renal = system: CAKI-1 renal
MDA-MB-435 = system: MDA-MB-435
MOLT-4 leukemia = system: MOLT-4 leukemia
IGROV1 ovarian = system: IGROV1 ovarian
OVCAR-4 ovarian = system: OVCAR-4 ovarian
NCI-H226 lung = system: NCI-H226 lung
SR leukemia = system: SR leukemia
U251 CNS = system: U251 CNS
NCI/ADR-RES ovarian = system: NCI/ADR-RES ovarian
SNB-75 CNS = system: SNB-75 CNS
NCI-H23 lung = system: NCI-H23 lung
SF-268 CNS = system: SF-268 CNS
PC-3 prostate = system: PC-3 prostate
COLO 205 colon = system: COLO 205 colon
T-47D breast = system: T-47D breast
HOP-92 NSCLC = system: HOP-92 NSCLC
M14 melanoma = system: M14 melanoma
CCRF-CEM leukemia = system: CCRF-CEM leukemia
KM12 colon = system: KM12 colon
SF-295 CNS = system: SF-295 CNS
HCC-2998 colon = system: HCC-2998 colon
OVCAR-8 ovarian = system: OVCAR-8 ovarian
SF-539 CNS = system: SF-539 CNS
TK-10 renal = system: TK-10 renal
HCT-15 colon = system: HCT-15 colon
ACHN renal = system: ACHN renal
HOP-62 NSCLC = system: HOP-62 NSCLC
SN12C renal = system: SN12C renal
UACC-62 melanoma = system: UACC-62 melanoma
MDA-MB-231 breast = system: MDA-MB-231 breast
NCI-H460 lung = system: NCI-H460 lung
MCF7 breast = system: MCF7 breast
DU-145 prostate = system: DU-145 prostate
OVCAR-3 ovarian = system: OVCAR-3 ovarian
SK-OV-3 ovarian = system: SK-OV-3 ovarian
RXF 393 renal = system: RXF 393 renal
HL-60(TB) leukemia = system: HL-60(TB) leukemia
NCI-H522 lung = system: NCI-H522 lung
A498 renal = system: A498 renal
SNB-19 CNS = system: SNB-19 CNS
LOX IMVI melanoma = system: LOX IMVI melanoma
OVCAR-5 ovarian = system: OVCAR-5 ovarian
UO-31 renal = system: UO-31 renal
SK-MEL-2 melanoma = system: SK-MEL-2 melanoma
EKVX NSCLC = system: EKVX NSCLC
UACC-257 melanoma = system: UACC-257 melanoma
HT29 colon = system: HT29 colon
SK-MEL-28 melanoma = system: SK-MEL-28 melanoma

Compound: COc1cc(/C=C/C(=O)c2ccc(Nc3nc(Nc4ccc(F)cc4)nc(Nc4ccc(Cl)cc4)n3)cc2)cc(OC)c1OC
- GI50 (BT-549 breast): 8.16 µM
- TGI (BT-549 breast): 59.3 µM
- GI50 (HS 578T breast): 2.75 µM
- TGI (HS 578T breast): 11.9 µM
- GI50 (RPMI-8226 leukemia): 0.811 µM
- TGI (RPMI-8226 leukemia): 4.8 µM
- GI50 (SK-MEL-5 melanoma): 4.16 µM
- TGI (SK-MEL-5 melanoma): 19 µM
- GI50 (HCT-116 colon): 3.13 µM
- TGI (HCT-116 colon): 14.2 µM
- GI50 (MALME-3M melanoma): 5.41 µM
- TGI (MALME-3M melanoma): 13.7 µM
- GI50 (A549 NSCLC): 12.1 µM
- TGI (A549 NSCLC): 99 µM
- GI50 (K-562 leukemia): 1.74 µM
- TGI (K-562 leukemia): 8.19 µM
- GI50 (SW-620 colon): 3.78 µM
- TGI (SW-620 colon): 17.2 µM
- GI50 (786-0 renal): 6.13 µM
- TGI (786-0 renal): 17.8 µM
- GI50 (CAKI-1 renal): > 100 µM
- TGI (CAKI-1 renal): > 100 µM
- GI50 (MDA-MB-435): 7.6 µM
- TGI (MDA-MB-435): > 26.4 µM
- GI50 (MOLT-4 leukemia): 1.15 µM
- TGI (MOLT-4 leukemia): 3.6 µM
- GI50 (IGROV1 ovarian): 4.66 µM
- TGI (IGROV1 ovarian): 31.8 µM
- GI50 (OVCAR-4 ovarian): 6.75 µM
- TGI (OVCAR-4 ovarian): > 100 µM
- GI50 (NCI-H226 lung): 3.63 µM
- TGI (NCI-H226 lung): 34.4 µM
- GI50 (SR leukemia): 1.03 µM
- TGI (SR leukemia): 3.74 µM
- GI50 (U251 CNS): 3.19 µM
- TGI (U251 CNS): > 34.7 µM
- GI50 (NCI/ADR-RES ovarian): 7.19 µM
- TGI (NCI/ADR-RES ovarian): > 85.3 µM
- GI50 (SNB-75 CNS): 3.67 µM
- TGI (SNB-75 CNS): 38.7 µM
- GI50 (NCI-H23 lung): 3.99 µM
- TGI (NCI-H23 lung): 20.7 µM
- GI50 (SF-268 CNS): 9.23 µM
- TGI (SF-268 CNS): 58.1 µM
- GI50 (PC-3 prostate): 1.04 µM
- GI50 (COLO 205 colon): 7.1 µM
- TGI (COLO 205 colon): 41.2 µM
- GI50 (T-47D breast): 5.6 µM
- TGI (T-47D breast): > 62.2 µM
- TGI (HOP-92 NSCLC): 4.75 µM
- GI50 (M14 melanoma): 10.1 µM
- TGI (M14 melanoma): 43.5 µM
- GI50 (CCRF-CEM leukemia): 1.09 µM
- TGI (CCRF-CEM leukemia): 6.69 µM
- GI50 (KM12 colon): 3.35 µM
- TGI (KM12 colon): 19.9 µM
- GI50 (SF-295 CNS): 12.6 µM
- TGI (SF-295 CNS): > 44.9 µM
- GI50 (HCC-2998 colon): 0.804 µM
- TGI (HCC-2998 colon): 2.3 µM
- GI50 (OVCAR-8 ovarian): 0.94 µM
- TGI (OVCAR-8 ovarian): 11.1 µM
- GI50 (SF-539 CNS): 6.54 µM
- TGI (SF-539 CNS): 15.3 µM
- GI50 (TK-10 renal): 19.8 µM
- TGI (TK-10 renal): 76.4 µM
- GI50 (HCT-15 colon): 2.02 µM
- TGI (HCT-15 colon): > 29.4 µM
- GI50 (ACHN renal): 5.88 µM
- TGI (ACHN renal): 61.1 µM
- GI50 (HOP-62 NSCLC): 24.6 µM
- TGI (HOP-62 NSCLC): > 73.8 µM
- GI50 (SN12C renal): 5.69 µM
- TGI (SN12C renal): 54.4 µM
- GI50 (UACC-62 melanoma): 6.66 µM
- TGI (UACC-62 melanoma): 23.7 µM
- GI50 (MDA-MB-231 breast): 5.77 µM
- TGI (MDA-MB-231 breast): > 37.9 µM
- GI50 (NCI-H460 lung): 4.3 µM
- TGI (NCI-H460 lung): 28 µM
- GI50 (MCF7 breast): 1.87 µM
- TGI (MCF7 breast): 20.3 µM
- GI50 (DU-145 prostate): 10.6 µM
- TGI (DU-145 prostate): > 65.9 µM
- GI50 (OVCAR-3 ovarian): 4.14 µM
- TGI (OVCAR-3 ovarian): 15.9 µM
- GI50 (SK-OV-3 ovarian): 46.8 µM
- TGI (SK-OV-3 ovarian): > 100 µM
- GI50 (RXF 393 renal): 1.12 µM
- TGI (RXF 393 renal): 2.9 µM
- GI50 (HL-60(TB) leukemia): 0.523 µM
- TGI (HL-60(TB) leukemia): 3.23 µM
- GI50 (NCI-H522 lung): 3.8 µM
- TGI (NCI-H522 lung): > 53.9 µM
- GI50 (A498 renal): 3.23 µM
- TGI (A498 renal): 13.6 µM
- GI50 (SNB-19 CNS): 18.9 µM
- TGI (SNB-19 CNS): > 100 µM
- GI50 (LOX IMVI melanoma): 1.82 µM
- TGI (LOX IMVI melanoma): 4.84 µM
- GI50 (OVCAR-5 ovarian): 12.6 µM
- TGI (OVCAR-5 ovarian): 45.5 µM
- GI50 (UO-31 renal): 6.7 µM
- TGI (UO-31 renal): > 61.8 µM
- GI50 (SK-MEL-2 melanoma): 5.51 µM
- TGI (SK-MEL-2 melanoma): 27 µM
- GI50 (EKVX NSCLC): > 24 µM
- TGI (EKVX NSCLC): > 100 µM
- GI50 (UACC-257 melanoma): 6.76 µM
- TGI (UACC-257 melanoma): 22.9 µM
- GI50 (HT29 colon): 2.81 µM
- TGI (HT29 colon): 17.5 µM
- GI50 (SK-MEL-28 melanoma): 1.82 µM
- TGI (SK-MEL-28 melanoma): 3.71 µM
